Measured values: EP1200395B1, “UREA DERIVATIVES AS INHIBITORS OF CCR-3 RECEPTOR” (KIRIN BEER KABUSHIKI KAISHA, priority 1999, dated 2001)

Tests used:
[1] = target: T1, CCR-3 (Homo sapiens, UniProt P51677); assay: Eotaxin-induced chemotaxis of CCR-3 transfectant cells (CCR3/U937); format: cell-based; design: expressed in transfected cells; host or cells: U937; details: 6.25 µg/ml test compound; eotaxin 1 x 10^-9 M; CCR3/U937 cells (Table 3b)
T1 sequence (P51677 1-355): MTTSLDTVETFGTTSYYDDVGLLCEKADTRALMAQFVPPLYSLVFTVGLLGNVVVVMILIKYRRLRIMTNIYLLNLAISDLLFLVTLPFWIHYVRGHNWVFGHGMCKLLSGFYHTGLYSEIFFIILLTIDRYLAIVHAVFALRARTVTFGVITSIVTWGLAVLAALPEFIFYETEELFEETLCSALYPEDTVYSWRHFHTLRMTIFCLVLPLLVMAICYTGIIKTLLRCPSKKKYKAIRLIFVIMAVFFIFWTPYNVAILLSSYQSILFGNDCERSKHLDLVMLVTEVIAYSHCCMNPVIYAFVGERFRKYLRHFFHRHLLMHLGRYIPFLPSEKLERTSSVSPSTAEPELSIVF

[2] = target: T1, CCR-3; assay: Calcium mobilization assay (inhibition of eotaxin-induced intracellular calcium mobilization in CCR3/HEK293 cells); format: cell-based; design: expressed in transfected cells; details: eotaxin 10 nM; for Ca^2+ mobilization 6.25 µg/ml (inhibition %): 6.25 µg/ml test compound, CCR3/HEK293 cells (Table 2a); for Ca^2+ mobilization 1.25 µg/ml (inhibition %): 1.25 µg/ml test compound, CCR3/HEK293 cells (Table 2b)
Experimental: Compounds 93-162 used in this assay were synthesized by using the method described in Example 6.
CCR-3 transfectant cells (CCR3/HEK293) were isolated and resuspended with assay buffer (20 mM HEPES, 125 mM NaCl, 5 mM KCl; 0.5 mM glucose, 1 mM CaCl2, 1 mM MgCl2, 0.1 % BSA). After washing CCR3/HEK293 cells with assay buffer, cells were loaded with Fura-2/AM in assay buffer for 1 hour at room temperature. Cells were washed and resuspended with assay buffer at 5 x 10^6 cells/ml in assay buffer, and placed in a tissue culture plate (Falcon, no. 3296). Test compounds dissolved in DMSO were added to the wells, followed by eotaxin (10 nM at final concentration). Cells were excited at 340 nm and 380 nm in a fluorimeter (ARGUS50, FDSS2000, Hamamatsu Photonics) and the relative ratio of the fluorescence emitted at 510 nm was recorded. For a control, DMSO without a test compound was added. Intracellular calcium mobilization was calculated as described in Krogel C. et al. , FEBS Let. (1989) 243 , 41-46.

Row | Compound | CCR-3 Transfectant Chemotaxis Assay 6.25 µg/ml (inhibition %) [1] [%] | Ca^2+ mobilization 6.25 µg/ml (inhibition %) [2] [%] | Ca^2+ mobilization 1.25 µg/ml (inhibition %) [2] [%]
1 | O=C(O)CCCN(CCCNC(=O)Nc1ccc(Br)cc1)CCc1ccc(Cl)c(Cl)c1 [Compound 133] | 21 | 63 | 
2 | Cc1cccc(NC(=O)NCCCN(C[C@@H]2CCCN2)C2CCCc3ccccc32)c1 (some centres unmarked) [Compound 135] | 12 | 57 | 
3 | C=C(C)C[N+](CC)(CCCNC(=O)Nc1ccc(Cl)c(Cl)c1)CCc1cccc(Cl)c1.[I-] (centres unmarked) [compound 365] |  |  | 65
4 | C=C(C)C[N+](CC)(CCCNC(=O)Nc1ccc(Cl)c(Cl)c1)CCc1ccc(Cl)cc1Cl.[I-] (centres unmarked) [compound 366] |  |  | 46
5 | C=C(C)C[N+](CC)(CCCNC(=O)Nc1ccc(Cl)c(Cl)c1)CCc1ccc(Cl)c(Cl)c1.[I-] (centres unmarked) [compound 367] |  |  | 50
6 | CC[N+](CCCNC(=O)Nc1ccc(C#N)cc1)(CCc1cccc(Cl)c1)CCC(C)C.[I-] (centres unmarked) [compound 393] |  |  | 56
7 | CC[N+](CCCNC(=O)Nc1ccc(C#N)cc1)(CCOCCOC)CCc1ccc(Cl)cc1Cl.[I-] (centres unmarked) [compound 395] |  |  | 69
8 | CC[N+](CCCNC(=O)Nc1ccc(C#N)cc1)(CCOCCOC)CCc1ccc(Cl)c(Cl)c1.[I-] (centres unmarked) [compound 396] |  |  | 67
9 | CC[N+](CCCNC(=O)Nc1ccc(C#N)cc1)(CCc1cccc(Cl)c1)CC1CCC1.[I-] (centres unmarked) [compound 397] |  |  | 69
10 | CC[N+](CCCNC(=O)Nc1ccc(C#N)cc1)(CCc1ccc(Cl)cc1Cl)CC1CCC1.[I-] (centres unmarked) [compound 398] |  |  | 70
11 | C=C(C)C[N+](CC)(CCCNC(=O)Nc1ccc(C#N)cc1)CCc1cccc(Cl)c1.[I-] (centres unmarked) [compound 399] |  |  | 58
12 | C=C(C)C[N+](CC)(CCCNC(=O)Nc1ccc(C#N)cc1)CCc1ccc(Cl)cc1Cl.[I-] (centres unmarked) [compound 400] |  |  | 68
13 | C=C(C)C[N+](CC)(CCCNC(=O)Nc1ccc(C#N)cc1)CCc1ccc(Cl)c(Cl)c1.[I-] (centres unmarked) [compound 401] |  |  | 57
14 | CC[N+](CCCNC(=O)Nc1ccc(OC)cc1)(CCc1cccc(Cl)c1)CCC(C)C.[I-] (centres unmarked) [compound 435] |  |  | 62
15 | CC[N+](CCCNC(=O)Nc1ccc(OC)cc1)(CCc1ccc(Cl)c(Cl)c1)CCC(C)C.[I-] (centres unmarked) [compound 436] |  |  | 57
16 | CC[N+](CCCNC(=O)Nc1ccc(OC)cc1)(CCc1ccc(Cl)c(Cl)c1)CC(N)=O.[I-] (centres unmarked) [compound 437] |  |  | 64
17 | CC[N+](CCCNC(=O)Nc1ccc(OC)cc1)(CCc1ccc(Cl)cc1)CC1CCC1.[I-] (centres unmarked) [compound 440] |  |  | 62
18 | CC[N+](CCCNC(=O)Nc1ccc(OC)cc1)(CCc1cccc(Cl)c1)CC1CCC1.[I-] (centres unmarked) [compound 441] |  |  | 71
19 | CC[N+](CCCNC(=O)Nc1ccc(OC)cc1)(CCc1ccc(Cl)cc1Cl)CC1CCC1.[I-] (centres unmarked) [compound 442] |  |  | 63
20 | CC[N+](CCCNC(=O)Nc1ccc(OC)cc1)(CCc1ccc(Cl)c(Cl)c1)CC1CCC1.[I-] (centres unmarked) [compound 443] |  |  | 69
21 | C=C(C)C[N+](CC)(CCCNC(=O)Nc1ccc(OC)cc1)CCc1ccc(Cl)cc1.[I-] (centres unmarked) [compound 444] |  |  | 72
22 | C=C(C)C[N+](CC)(CCCNC(=O)Nc1ccc(OC)cc1)CCc1cccc(Cl)c1.[I-] (centres unmarked) [compound 445] |  |  | 63
23 | C=C(C)C[N+](CC)(CCCNC(=O)Nc1ccc(OC)cc1)CCc1ccc(Cl)cc1Cl.[I-] (centres unmarked) [compound 446] |  |  | 76
24 | C=C(C)C[N+](CC)(CCCNC(=O)Nc1ccc(OC)cc1)CCc1ccc(Cl)c(Cl)c1.[I-] (centres unmarked) [compound 447] |  |  | 65
